Laboratory results reported in patent US12157730B2, “Heteroaryl derivative, method for producing same, and pharmaceutical composition comprising same as effective component” (VORONOI INC., priority 2019, dated 2024).

Target: T1, Ba/F3 cell EGFR Exon20 ins NPH (Homo sapiens, UniProt P00533, INS773NPH)
T1 construct: expressed in transfected cells; host or cells: Ba/F3
Test: Ba/F3 cell proliferation suppression, EGFR Exon20 ins NPH
Format: cell-based
Conditions: GI50 class; Ba/F3 cell line with NPH inserted at Exon20 of EGFR; 72 hours
Procedure, shortened: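 After 72 h compound exposure (twelve 3-fold steps, 0.3 nM–50 um final), live cells were measured by CellTiter-Glo luminescence and growth expressed as % of control to derive GI50. Cells were seeded at 3000–5000 per well a day earlier; Ba/F3 medium contained IL-3; three repeats.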

Structure (SMILES)	Ba/F3 (NPH) Activity
C=CC(=O)Nc1cc(Nc2cc(N3OCC[C@@H]3Cc3cccc(Cl)c3OC)ncn2)c(OC)cc1N1CCN(C2CC2)CC1 [compound 1053, N-(5-((6-((S)-3-(3-chloro-2-methoxybenzyl)isoxazolidine-2-yl)pyrimidine-4-yl)amino)-2-(4-cyclopropylpiperazine-1-yl)-4-methoxyphenyl) acrylamide]	A (GI50 < 50 nM)
C=CC(=O)Nc1cc(Nc2cc(N3OCC[C@@H]3c3cccc(C)c3F)ncn2)c(OC)cc1N1CCN(CC)CC1 [compound 847, N-(2-(4-ethylpiperazine-1-yl)-5-((6-((R)-3-(2-fluoro-3-methylphenyl)isoxazolidine-2-yl)pyrimidine-4-yl)amino)-4-methoxyphenyl) acrylamide]	A (GI50 < 50 nM)
C=CC(=O)Nc1cc(Nc2cc(N3OCC[C@@H]3Cc3ccccc3)ncn2)c(OC)cc1N1CCC(N(C)C)CC1 [compound 951, N-(5-((6-((S)-3-benzylisoxazolidine-2-yl)pyrimidine-4-yl)amino)-2-(4-(dimethylamino)piperidine-1-yl)-4-methoxyphenyl) acrylamide]	A (GI50 < 50 nM)
C=CC(=O)Nc1cc(Nc2cc(N3OCC[C@@H]3c3ccc(C)nc3)ncn2)c(OC)cc1N1CCN(C2CCCC2)CC1 [Example 225, N-(2-(4-cyclopentylpiperazine-1-yl)-4-methoxy-5-((6-((R)-3-(6-methylpyridine-3-yl)isoxazolidine-2-yl)pyrimidine-4-yl)amino)phenyl)acrylamide]	B (50 nM ≤ GI50 < 500 nM)
C=CC(=O)Nc1cc(Nc2cc(N3OCC[C@H]3c3c(F)cccc3F)ncn2)c(OC)cc1N1C[C@@H]2CCN(C)[C@@H]2C1 [compound 899, N-(5-((6-((S)-3-(2,6-difluorophenyl)isoxazolidine-2-yl)pyrimidine-4-yl)amino)-4-methoxy-2-((3aS,6aS)-1-methylhexahydropyrrolo [3,4-b]pyrrole-5(1H)-yl)phenyl) acrylamide]	C (500 nM ≤ GI50 < 5000 nM)
C=CC(=O)Nc1cc(Nc2cc(N3OCC[C@@H]3c3cccc(Cl)c3Cl)ncn2)c(OC)cc1N1C[C@H]2C[C@@H]1CN2CC [compound 525, N-(5-((6-((R)-3-(2,3-dichlorophenyl)isoxazolidine-2-yl)pyrimidine-4-yl)amino)-2-((1R,4R)-5-ethyl-2,5-diazabicyclo[2.2.1]heptane-2-yl)-4-methoxyphenyl) acrylamide]	A (GI50 < 50 nM)
C=CC(=O)Nc1cc(Nc2cc(N3OCC[C@@H]3c3cc(F)ccc3F)ncn2)c(OC)cc1N1CCC(N2CCO[C@H](C)C2)CC1 [compound 822, N-(5-((6-((R)-3-(2,5-difluorophenyl)isoxazolidine-2-yl)pyrimidine-4-yl)amino)-4-methoxy-2-(4-((R)-2-methylmorpholino)piperidine-1-yl)phenyl) acrylamide]	A (GI50 < 50 nM)
C=CC(=O)Nc1cc(Nc2cc(N3OCC[C@@H]3c3ccc(Cl)c(F)c3)ncn2)c(OC)cc1N1CCN(C)CC1 [compound 795, N-(5-((6-((R)-3-(4-chloro-3-fluorophenyl)isoxazolidine-2-yl)pyrimidine-4-yl)amino)-4-methoxy-2-(4-methylpiperazine-1-yl)phenyl)acrylamide]	B (50 nM ≤ GI50 < 500 nM)
C=CC(=O)Nc1cc(Nc2cc(N3OCC[C@@H]3c3ccc(Cl)c(Cl)c3F)ncn2)c(OC)cc1N1CCC(N2CC[C@@H](N(C)C)C2)CC1 [compound 771, N-(5-((6-((R)-3-(3,4-dichloro-2-fluorophenyl)isoxazolidine-2-yl)pyrimidine-4-yl)amino)-2-(4-((R)-3-(dimethylamino)pyrolidine-1-yl)piperidine-1-yl)-4-methoxyphenyl) acrylamide]	B (50 nM ≤ GI50 < 500 nM)
C=CC(=O)Nc1cc(Nc2cc(N3OCC[C@@H]3c3cc(F)cc(F)c3)ncn2)c(C)cc1N1CCC(N2CCN(C3CC3)CC2)CC1 [compound 534, N-(2-(4-(4-cyclopropylpiperazine-1-yl)piperidine-1-yl)-5-((6-((R)-3-(3,5-difluorophenyl)isoxazolidine-2-yl)pyrimidine-4-yl)amino)-4-methylphenyl) acrylamide]	A (GI50 < 50 nM)
C=CC(=O)Nc1cc(Nc2cc(N3OCC[C@@H]3c3cccc(F)c3F)ncn2)c(OC)cc1N1CCC(N2CCC(F)(F)CC2)CC1 [compound 341, N-(2-(4,4-difluoro-[1,4'-bipiperidine]-1'-yl)-5-((6-((R)-3-(2,3-difluorophenyl)isoxazolidine-2-yl)pyrimidine-4-yl)amino)-4-methoxyphenyl) acrylamide]	A (GI50 < 50 nM)
C=CC(=O)Nc1cc(Nc2cc(N3OCC[C@@H]3c3ccccc3)ncn2)c(OC)cc1N1CCC(N2CC[C@H](N(C)C)C2)CC1 [Example 286, N-(2-(4-((S)-3-(dimethylamino)pyrolidine-1-yl)piperidine-1-yl)-4-methoxy-5-((6-((R)-3-phenylisoxazolidine-2-yl)pyrimidine-4-yl)amino)phenyl) acrylamide]	A (GI50 < 50 nM)
C#Cc1cccc([C@H]2CCON2c2cc(Nc3cc(NC(=O)C=C)c(N(C)CCN(C)C)cc3OC)ncn2)c1 [compound 616, N-(2-((2-(dimethylamino)ethyl) (methyl)amino)-5-((6-((R)-3-(3-ethynylphenyl)isoxazolidine-2-yl)pyrimidine-4-yl)amino)-4-methoxyphenyl) acrylamide]	A (GI50 < 50 nM)
C=CC(=O)Nc1cc(Nc2cc(N3OCC[C@@H]3c3cccc(Cl)c3)ncn2)c(OC)cc1N1CCC(N2CCN(C3CC3)CC2)CC1 [Example 138, N-(5-((6-((R)-3-(3-chlorophenyl)isoxazolidine-2-yl)pyrimidine-4-yl)amino)-2-(4-(4-cyclopropylpiperazine-1-yl)piperidine-1-yl)-4-methoxyphenyl) acrylamide]	A (GI50 < 50 nM)
C=CC(=O)Nc1cc(Nc2cc(N3OCC[C@@H]3c3cc(F)cc(F)c3)ncn2)c(OC)cc1N1CCC(N2CCN(C3CC3)[C@H](C)C2)CC1 [Example 109, N-(2-(4-((R)-4-cyclopropyl-3-methylpiperazine-1-yl)piperidine-1-yl)-5-((6-((R)-3-(3,5-difluorophenyl)isoxazolidine-2-yl)pyrimidine-4-yl)amino)-4-methoxyphenyl) acrylamide]	A (GI50 < 50 nM)
C=CC(=O)Nc1cc(Nc2cc(N3OCC[C@@H]3c3ccc(F)c(F)c3)ncn2)c(OC)cc1N1CCC(N2CCN(C(C)=O)CC2)CC1 [compound 544, N-(2-(4-(4-acetylpiperazine-1-yl)piperidine-1-yl)-5-((6-((R)-3-(3,4-difluorophenyl)isoxazolidine-2-yl)pyrimidine-4-yl)amino)-4-methoxyphenyl) acrylamide]	A (GI50 < 50 nM)
C=CC(=O)Nc1cc(Nc2cc(N3OCC[C@H]3c3c(F)cccc3F)ncn2)c(OC)cc1N1CCC(N2C[C@@H](C)O[C@@H](C)C2)CC1 [compound 309, N-(5-((6-((S)-3-(2,6-difluorophenyl)isoxazolidine-2-yl)pyrimidine-4-yl)amino)-2-(4-((2S,6R)-2,6-dimethylmorpholino)piperidine-1-yl)-4-methoxyphenyl) acrylamide]	C (500 nM ≤ GI50 < 5000 nM)
C=CC(=O)Nc1cc(Nc2cc(N3OCC[C@@H]3c3ccccc3)ncn2)c(OC)cc1N1CCN(CCN(C)C)CC1 [Example 278, N-(2-(4-(2-(dimethylamino)ethyl)piperazine-1-yl)-4-methoxy-5-((6-((R)-3-phenylisoxazolidine-2-yl)pyrimidine-4-yl)amino)phenyl) acrylamide]	A (GI50 < 50 nM)
C=CC(=O)Nc1cc(Nc2cc(N3OCC[C@@H]3c3ccc(F)c(Cl)c3F)ncn2)c(OC)cc1N1CCC(N2C[C@H]3C[C@@H]2CO3)CC1 [compound 635, N-(2-(4-((1R,4R)-2-oxa-5-azabicyclo[2.2.1]heptane-5-yl)piperidine-1-yl)-5-((6-((R)-3-(3-chloro-2,4-difluorophenyl)isoxazolidine-2-yl)pyrimidine-4-yl)amino)-4-methoxyphenyl) acrylamide]	A (GI50 < 50 nM)
C=CC(=O)Nc1cc(Nc2cc(N3OCC[C@@H]3c3cc(F)cc(Cl)c3)ncn2)c(OC)cc1N1CCC(N2C[C@@H](C)O[C@@H](C)C2)CC1 [compound 594, N-(5-((6-((R)-3-(3-chloro-5-fluorophenyl)isoxazolidine-2-yl)pyrimidine-4-yl)amino)-2-(4-((2S,6R)-2,6-dimethylmorpholino)piperidine-1-yl)-4-methoxyphenyl) acrylamide]	A (GI50 < 50 nM)
C=CC(=O)Nc1cc(Nc2cc(N3OCC[C@@H]3c3cccc(C)c3F)ncn2)c(OC)cc1N1CCC(N2CCN(CC)CC2)CC1 [compound 318, N-(2-(4-(4-ethylpiperazine-1-yl)piperidine-1-yl)-5-((6-((R)-3-(2-fluoro-3-methylphenyl)isoxazolidine-2-yl)pyrimidine-4-yl)amino)-4-methoxyphenyl) acrylamide]	A (GI50 < 50 nM)
C=CC(=O)Nc1cc(Nc2cc(N3OCC[C@@H]3c3cc(F)cc(F)c3)ncn2)c(OC)cc1N1CCC(N2C[C@H](C)N(C3CC3)C[C@@H]2C)CC1 [Example 113, N-(2-(4-((2S,5S)-4-cyclopropyl-2,5-dimethylpiperazine-1-yl)piperidine-1-yl)-5-((6-((R)-3-(3,5-difluorophenyl)isoxazolidine-2-yl)pyrimidine-4-yl)amino)-4-methoxyphenyl) acrylamide]	A (GI50 < 50 nM)
